Experimental data taken from patent US20220098251A1, “PEPTIDE TAGS FOR LIGAND INDUCED DEGRADATION OF FUSION PROTEINS” (DANA-FARBER CANCER INSTITUTE, INC., priority 2018, published 2022).

What was measured:
[1] = target: T1, eGFP-IKZF1Δ fusion (Homo sapiens, UniProt Q13422); assay: Cellular degradation assay of eGFP-IKZF1Δ reporter by flow cytometry; format: cell-based; details: Flip-In 293 cells, 5 h, eGFP/mCherry
T1 construct: eGFP (followed by P2A); expressed in transfected cells
Procedure: Following 2-3 passage cycle FACS (FACSAria™ II, BD) was used to enrich for cells expressing eGFP and mCherry.
Signal from at least 3,000 events per well was acquired, and the eGFP and mCherry florescence monitored. Data were analyzed using FlowJo™ (FlowJo™, LCC). […] The eGFP protein abundance relative to mCherry was then quantified as a ten-fold amplified ratio for each individual cell using the formula: 10×eGFP/mCherry. The median of the ratio was then calculated per set, normalized to the median of the DMSO ratio.
Quantitative assessment of cellular degradation of a IKZF1-EGFP reporter using flow cytometry analysis. Cells stably expressing IKZF1Δ-EGFP and mCherry were treated with increasing concentrations of the indicated molecules and the EGFP and mCherry signals followed using flow cytometry analysis. Data in this figure are presented as means±s.d. from four cell culture replicates (n=4).

[2] = tested on: Jurkat cells expressing individual ZFs in the Cilantro 2 protein degradation reporter; assay: Drug dependent degradation of ZFs in Cilantro 2 protein degradation reporter lentivector; format: cell-based; details: Cilantro 2, Jurkat cells
Excerpt: Next-generation sequencing of sorted cell populations encoding the ZF library was based on GFP expression. […] The experimental procedure was as described in Example 16.

[3] = tested on: Kelly cells transiently transfected with Flag-hsSALL4; assay: Western blot of Flag-hsSALL4 levels in Kelly cells treated with thalidomide; format: cell-based; details: 24 hours
Procedure: Kelly cells were transiently transfected with hsSALL4^G416A or Flag-hsSALL4^G416N were treated with increasing concentrations of thalidomide or DMSO as a control. Following 24 hours of incubation, SALL4 (α-Flag) and GAPDH protein levels were assessed by western blot analysis (FIG. 4A). (See, Example 7 for western blot method.)
Kelly cells transiently transfected with Flag-hsSALL4WT, Flag-hsSALL4G600A, or hsSALL4G600N were treated with increasing concentrations of thalidomide or DMSO as a control. Following 24 h of incubation, SALL4 (α-Flag) and GAPDH protein levels were assessed by western blot analysis (one representative experiment is shown out of three replicates).
Cells were treated with compounds as indicated and incubated for 24 hours, or as indicated. Samples were run on 4-20% or Any kD™ SDS-PAGE Gels (Bio-rad), and transferred to polyvinylidene fluoride (PVDF) membranes using the iBlot® 2.0 dry blotting system (Thermo Fisher Scientific). Membranes were blocked with LI-COR® blocking solution (LI-COR®), and incubated with primary antibodies overnight, followed by three washes in LI-COR® blocking solution and incubation with secondary antibodies for one hour in the dark. After three final washes, the membranes were imaged on a LI-COR® fluorescent imaging station.

[4] = tested on: DDB1ΔB-CRBN; assay: TR-FRET of SALL4 degron binding to CRBN; set-up: species or system human; details: for IMiD-dependent dimerization / binding affinity to CRBN: SALL4 degron tags, biochemical assays; for IMiD induced CRBN binding: purified proteins, SALL4 point mutants
Procedure: Compounds in binding assays were dispensed into a 384-well microplate (Corning, 4514) using the D300e Digital Dispenser (HP) normalized to 1% DMSO and containing 100 nM biotinylated Strep-Avi-SALL4 (WT or mutant, see, FIG. 3A-FIG. 3K), 1 μM His6-DDB1ΔB-His6-CRBNBODIPY-Spycatcher and 4 nM terbium-coupled streptavidin (Invitrogen) in a buffer containing 50 mM Tris pH 7.5, 100 mM NaCl, 1 mM TCEP, 0.1% Pluronic F-68 solution (Sigma). Before TR-FRET measurements were conducted, the reactions were incubated for 15 minutes at room temperature (RT). After excitation of terbium fluorescence at 337 nm, emission at 490 nm (terbium) and 520 nm (boron-dipyrromethene (BODIPY)) were recorded with a 70 μs delay over 600 μs to reduce background fluorescence and the reaction was followed over 30×200 second cycles of each data point using a PHERAstar® FS microplate reader (BMG Labtech). The TR-FRET signal of each data point was extracted by calculating the 520/490 nm ratios. Data from three independent measurements (n=3), each calculated as an average of 5 technical replicates per well per experiment, was plotted and the half maximal effective concentrations EC50 values calculated using variable slope equation in GraphPad Prism 7. […] The resulting data were fitted as described previously. (Petzold et al., Nature 532:127-130 (2016)).

[5] = target: T2, DDB1ΔB-CRBN (Homo sapiens, UniProt Q96SW2); assay: IKZF1Δ TR-FRET dimerization assay; format: binding; details: titration of IMiDs
T2 construct: 3C protease site (N); made in house; host or cells: Trichoplusia ni High Five insect cells (baculovirus)
Procedure: Compounds in dimerization assays were dispensed in a 384-well microplate (Corning, 4514) using D300e Digital Dispenser (HP) normalized to 2% DMSO into 80 nM biotinylated StrepII-avi-IKZF1Δ (See, Figure legends), 100 nM His6-DDB1ΔB-His6-CRBNBODIPY-Spycatcher and 2 nM terbium-coupled streptavidin (Invitrogen™) in a buffer containing 50 mM Tris pH 7.5, 200 mM NaCl, 0.1% Pluronic F-68 solution (Sigma) and 2% DMSO (4% DMSO final). Before TR-FRET measurements were conducted, the reactions were incubated for 15 min at RT. After excitation of terbium fluorescence at 337 nm, emission at 490 nm (terbium) and 520 nm (BODIPY) were recorded with a […] to reduce background fluorescence and the reaction was followed over 30 200 second cycles of each data point using a PHERAstar® FS microplate reader (BMG Labtech). The TR-FRET signal of each data point was extracted by calculating the 520/490 nm ratio. The 520/490 nm ratios in IKZF1Δ TR-FRET assays were plotted to calculate or IC50 (for compound titrations) using GraphPad Prism 7 variable slope equation. The standard deviation in IKZF1Δ TR-FRET compound titrations was calculated from three independent replicates (n=3), or as an average of 5 technical replicates of single experiment for unlabeled protein titrations.
Titration of the indicated molecules to DDB1ΔB-CRBNSPYCATCHER-BODIPY, Terbium-streptavidin and IKZF1Δbiotin. […]

T1 sequence (Q96SW2 whole entry partner, one chain of several, the tested form may be a part): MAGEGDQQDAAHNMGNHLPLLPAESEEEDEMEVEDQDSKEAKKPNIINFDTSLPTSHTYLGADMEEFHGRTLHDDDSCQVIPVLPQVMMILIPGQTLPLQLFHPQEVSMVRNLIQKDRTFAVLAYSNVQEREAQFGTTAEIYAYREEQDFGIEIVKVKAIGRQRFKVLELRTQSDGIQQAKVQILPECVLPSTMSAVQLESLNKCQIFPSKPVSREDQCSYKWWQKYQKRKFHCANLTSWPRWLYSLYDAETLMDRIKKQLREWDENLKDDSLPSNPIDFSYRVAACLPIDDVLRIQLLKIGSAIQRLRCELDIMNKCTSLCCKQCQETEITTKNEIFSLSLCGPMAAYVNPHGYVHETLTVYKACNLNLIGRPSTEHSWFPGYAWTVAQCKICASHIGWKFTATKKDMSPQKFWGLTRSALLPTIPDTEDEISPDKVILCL
T1 sequence (Q16531 whole entry partner, one chain of several, the tested form may be a part): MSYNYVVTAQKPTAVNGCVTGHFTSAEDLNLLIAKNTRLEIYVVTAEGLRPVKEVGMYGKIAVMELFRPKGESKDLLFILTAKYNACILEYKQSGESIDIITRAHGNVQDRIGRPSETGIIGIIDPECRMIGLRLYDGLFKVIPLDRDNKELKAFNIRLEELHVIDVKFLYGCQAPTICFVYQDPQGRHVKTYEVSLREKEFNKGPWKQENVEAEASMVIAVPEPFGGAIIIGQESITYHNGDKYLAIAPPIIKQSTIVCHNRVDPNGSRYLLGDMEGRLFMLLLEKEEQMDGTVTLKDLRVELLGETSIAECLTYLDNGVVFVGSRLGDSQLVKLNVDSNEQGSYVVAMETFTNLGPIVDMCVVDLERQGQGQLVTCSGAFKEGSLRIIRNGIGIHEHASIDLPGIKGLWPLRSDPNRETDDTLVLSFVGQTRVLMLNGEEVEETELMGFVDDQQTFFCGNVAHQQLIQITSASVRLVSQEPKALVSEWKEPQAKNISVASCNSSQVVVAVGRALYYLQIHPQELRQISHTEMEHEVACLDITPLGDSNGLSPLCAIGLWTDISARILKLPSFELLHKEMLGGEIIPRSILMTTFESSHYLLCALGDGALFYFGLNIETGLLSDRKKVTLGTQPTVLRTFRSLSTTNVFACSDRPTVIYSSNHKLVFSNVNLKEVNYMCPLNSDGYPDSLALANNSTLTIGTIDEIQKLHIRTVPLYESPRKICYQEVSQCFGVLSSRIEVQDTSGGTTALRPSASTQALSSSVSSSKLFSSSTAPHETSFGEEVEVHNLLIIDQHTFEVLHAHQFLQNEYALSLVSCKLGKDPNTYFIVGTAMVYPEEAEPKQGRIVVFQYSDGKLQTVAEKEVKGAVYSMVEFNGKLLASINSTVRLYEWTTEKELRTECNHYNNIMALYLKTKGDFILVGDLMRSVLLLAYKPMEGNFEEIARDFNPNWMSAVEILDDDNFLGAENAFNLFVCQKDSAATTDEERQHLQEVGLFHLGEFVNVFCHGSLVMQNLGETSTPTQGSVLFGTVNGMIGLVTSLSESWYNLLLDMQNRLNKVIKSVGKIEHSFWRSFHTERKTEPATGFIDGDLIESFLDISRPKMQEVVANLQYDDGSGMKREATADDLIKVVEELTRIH
T2 sequence (Q96SW2 whole entry, stated change not applied): as the sequence (Q96SW2 whole entry partner, one chain of several, the tested form may be a part) above

O=C1CCC(N2C(=O)c3ccccc3C2=O)C(=O)N1 (stereo not drawn) [thalidomide]
degradation of eGFP-IKZF1Δ fusion [1]: potent degradation

CC220-3: zinc finger degron FYCKQCGANFSRWEELYNHLKAH (SEQ ID NO: 187)
degradation by iberdomide relative to control sequences [2]: more efficiently degraded by iberdomide (aka CC-220) than the indicated control sequences

Q595H: SALL4 ZnF4 with mutation of glutamine 595 residue
protein degradation in cells [3]: no effect at the ability of the protein product to be degraded | IMiD-dependent dimerization / binding affinity to CRBN [4]: reduced binding affinity

Nc1cccc2c1C(=O)N(C1CCC(=O)NC1=O)C2=O (stereo not drawn) [pomalidomide]
degradation of eGFP-IKZF1Δ fusion [1]: potent degradation

G416A: SALL4 with G416A point mutation in ZnF2
protein degradation in cells [3]: disable degradation in cells | IMiD induced CRBN binding [4]: abrogated IMiD induced CRBN binding

CC220-1: zinc finger degron FYCTQCGAAFDRWEELYNHLLNH (SEQ ID NO: 185)
degradation by iberdomide relative to control sequences [2]: more efficiently degraded by iberdomide (aka CC-220) than the indicated control sequences

CC220-2: zinc finger degron MQCEICGFTCRRAEELNTHLNKH (SEQ ID NO: 186)
degradation by iberdomide relative to control sequences [2]: more efficiently degraded by iberdomide (aka CC-220) than the indicated control sequences

Nc1cccc2c1CN(C1CCC(=O)NC1=O)C2=O (stereo not drawn) [lenalidomide]
degradation of eGFP-IKZF1Δ fusion [1]: potent degradation

B1: IKZF1 (SEQ ID NO: 18): non-naturally occurring degron tag of SEQ ID NO: 18 (protein)
chain: RMLDASGEKMNGSHRDQGSSALSGVGGIRLPNGKLKCDICGIICIGPNVLMVHKRSHTGERPFQCNQCGASFTQKGNLLRHIKLHSGEKPFKCHLCNYACRRRDALTGHLRTHSVIKEETNHSEMAEDLCK
dimerization between CRBN-DDB1ΔB and IKZF1Δ [5]: Potent dimerization

B2: G416N: SALL4 with G416N point mutation in ZnF2 (protein)
chain: ALYKHKCKYCSKVFGTDSSLQIHLRSHTGERPFVCSVCNHRFTTKGNLKVHFHRHPQVKAN
modifications: left off: small tags and cut ends
notes: SALL4 with G416N point mutation in ZnF2
protein degradation in cells [3]: disable degradation in cells | IMiD induced CRBN binding [4]: abrogated IMiD induced CRBN binding

B3: S388N: SALL4 ZnF1-2 with S388N mutation in ZnF1 (SEQ ID NO: 84) (protein)
chain: ALYKHKCKYCNKVFGTDSSLQIHLRSHTGERPFVCSVCGHRFTTKGNLKVHFHRHPQVKAN
IMiD induced CRBN binding [4]: maintained IMiD induced CRBN binding

B4: SALL4 ZnF1-2: degron tag SEQ ID NO: 27 (protein)
chain: ALYKHKCKYCSKVFGTDSSLQIHLRSHTGERPFVCSVCGHRFTTKGNLKVHFHRHPQVKAN
IMiD-dependent dimerization / binding affinity to CRBN [4]: sufficient to induce efficient dimerization
